According to US9050341B2, “Methods of treating drug resistant and other tumors by administering 6,7-dialkoxy quinazoline derivatives” (NATCO PHARMA LIMITED, priority 2009, dated 2015):

Assays:
Test in all cases: KinomeScan kinase profiling
Assay type in all cases: binding
[1] = molecular target: T1, p38-gamma (Homo sapiens, UniProt P53778)
T1 construct: host or cells: E. coli host derived from the BL21 strain, infected with T7 phage
In short: (§1)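 Kinases were expressed as T7 phage fusions in a BL21-derived E. coli host and the cleared lysates were used. Ligand beads were blocked with biotin and buffer (1% BSA, 0.05% Tween 20, 1 mM DTT). Compounds came from 40× DMSO stocks, and phage in the eluates was titred by qPCR.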

[2] = molecular target: T2, TAK1 (Homo sapiens, UniProt O43318)
T2 construct: host or cells: E. coli host derived from the BL21 strain, T7 phage lysate
In short: as §1

[3] = molecular target: T3, BIKE (Homo sapiens, UniProt Q9NSY1)
T3 construct: purchased Ambit Biosciences Corp (KinomeScan); host or cells: E. coli host derived from the BL21 strain, T7 phage
In short: as §1

[4] = molecular target: T4, TRKA (Homo sapiens, UniProt P04629)
T4 construct: purchased Ambit Biosciences Corp (KinomeScan); host or cells: E. coli host derived from the BL21 strain (T7 phage lysate)
In short: as §1

[5] = molecular target: T5, MAP4K5 (Homo sapiens, UniProt Q9Y4K4)
T5 construct: host or cells: E. coli derived from BL21, infected with T7 phage
In short: as §1

[6] = molecular target: T6, CSNK1G1 (Homo sapiens, UniProt Q9HCP0)
T6 construct: purchased Ambit Biosciences Corp (KinomeScan); host or cells: T7 phage in E. coli host derived from BL21
In short: as §1

[7] = molecular target: T7, ACVR2A (Homo sapiens, UniProt P27037)
T7 construct: host or cells: E. coli host derived from BL21 (T7 phage lysate)
In short: as §1

[8] = molecular target: T8, CSK (Homo sapiens, UniProt P41240)
T8 construct: host or cells: T7 phage in E. coli (BL21-derived)
In short: as §1

[9] = molecular target: T9, ULK3 (Homo sapiens, UniProt Q6PHR2)
T9 construct: purchased Ambit Biosciences Corp (KinomeScan); host or cells: E. coli host derived from the BL21 strain (T7 phage lysate)
In short: as §1

[10] = molecular target: T10, PIK3CB (Homo sapiens, UniProt P42338)
T10 construct: host or cells: E. coli host derived from the BL21 strain, infected with T7 phage
In short: as §1

[11] = molecular target: T11, PAK1 (Homo sapiens, UniProt Q13153)
T11 construct: host or cells: E. coli host derived from the BL21 strain, infected with T7 phage
In short: as §1

[12] = molecular target: T12, RET (M918T) (Homo sapiens, UniProt P07949, M918T)
T12 construct: host or cells: E. coli host derived from BL21, T7 phage lysate
In short: as §1

[13] = molecular target: T13, ANKK1 (Homo sapiens, UniProt Q8NFD2)
T13 construct: host or cells: E. coli host derived from BL21 (T7 phage lysate)
In short: as §1

[14] = molecular target: T14, DAPK1 (Homo sapiens, UniProt P53355)
T14 construct: purchased Ambit Biosciences Corp (KinomeScan); host or cells: T7 phage in E. coli host derived from BL21
In short: as §1

[15] = molecular target: T15, EGFR (L861Q) (Homo sapiens, UniProt P00533, L861Q)
T15 construct: host or cells: E. coli host derived from BL21, T7 phage lysate
In short: as §1

[16] = molecular target: T16, BRSK2 (Homo sapiens, UniProt Q8IWQ3)
T16 construct: purchased Ambit Biosciences Corp (KinomeScan); host or cells: E. coli host derived from the BL21 strain, T7 phage
In short: as §1

[17] = molecular target: T17, LIMK2 (Homo sapiens, UniProt P53671)
T17 construct: host or cells: T7 phage in E. coli host derived from BL21
In short: as §1

[18] = molecular target: T18, PAK7 (Homo sapiens, UniProt Q9P286)
T18 construct: host or cells: E. coli host derived from the BL21 strain, infected with T7 phage
In short: as §1

[19] = molecular target: T19, TNK1 (Homo sapiens, UniProt Q13470)
T19 construct: purchased Ambit Biosciences Corp (KinomeScan); host or cells: E. coli host derived from the BL21 strain (T7 phage lysate)
In short: as §1

[20] = molecular target: T20, PKN2 (Homo sapiens, UniProt Q16513)
T20 construct: purchased Ambit Biosciences Corp (KinomeScan); host or cells: E. coli host derived from BL21, infected with T7 phage
In short: as §1

[21] = molecular target: T21, EGFR (E746-A750del) (Homo sapiens, UniProt P00533, DEL746-750)
T21 construct: purchased Ambit Biosciences Corp (KinomeScan); host or cells: T7 phage in E. coli host derived from BL21
In short: as §1

[22] = molecular target: T22, EPHA4 (Homo sapiens, UniProt P54764)
T22 construct: host or cells: E. coli host derived from BL21, T7 phage lysate
In short: as §1

[23] = molecular target: T23, RIOK3 (Homo sapiens, UniProt O14730)
T23 construct: host or cells: E. coli host derived from BL21, T7 phage lysate
In short: as §1

T4 sequence (P04629 33-796): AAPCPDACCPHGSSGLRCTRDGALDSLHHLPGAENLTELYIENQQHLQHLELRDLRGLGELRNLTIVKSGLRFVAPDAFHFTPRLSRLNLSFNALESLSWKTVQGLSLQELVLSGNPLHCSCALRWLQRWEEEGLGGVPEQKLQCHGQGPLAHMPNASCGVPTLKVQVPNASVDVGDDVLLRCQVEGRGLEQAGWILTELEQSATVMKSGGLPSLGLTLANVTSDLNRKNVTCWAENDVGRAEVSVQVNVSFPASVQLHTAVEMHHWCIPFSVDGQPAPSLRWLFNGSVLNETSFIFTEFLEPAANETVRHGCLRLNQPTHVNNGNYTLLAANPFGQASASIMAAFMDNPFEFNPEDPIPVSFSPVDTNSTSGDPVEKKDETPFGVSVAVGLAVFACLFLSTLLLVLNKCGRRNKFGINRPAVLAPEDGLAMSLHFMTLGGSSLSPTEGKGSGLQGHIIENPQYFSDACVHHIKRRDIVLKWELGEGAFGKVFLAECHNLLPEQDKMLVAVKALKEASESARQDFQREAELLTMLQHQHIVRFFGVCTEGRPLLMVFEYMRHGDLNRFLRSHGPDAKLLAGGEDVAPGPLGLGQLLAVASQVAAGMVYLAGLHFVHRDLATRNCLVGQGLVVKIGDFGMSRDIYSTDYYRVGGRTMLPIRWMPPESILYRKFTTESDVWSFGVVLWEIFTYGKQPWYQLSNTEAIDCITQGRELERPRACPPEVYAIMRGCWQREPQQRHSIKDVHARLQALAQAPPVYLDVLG
T12 sequence (P07949 29-1114 M918T): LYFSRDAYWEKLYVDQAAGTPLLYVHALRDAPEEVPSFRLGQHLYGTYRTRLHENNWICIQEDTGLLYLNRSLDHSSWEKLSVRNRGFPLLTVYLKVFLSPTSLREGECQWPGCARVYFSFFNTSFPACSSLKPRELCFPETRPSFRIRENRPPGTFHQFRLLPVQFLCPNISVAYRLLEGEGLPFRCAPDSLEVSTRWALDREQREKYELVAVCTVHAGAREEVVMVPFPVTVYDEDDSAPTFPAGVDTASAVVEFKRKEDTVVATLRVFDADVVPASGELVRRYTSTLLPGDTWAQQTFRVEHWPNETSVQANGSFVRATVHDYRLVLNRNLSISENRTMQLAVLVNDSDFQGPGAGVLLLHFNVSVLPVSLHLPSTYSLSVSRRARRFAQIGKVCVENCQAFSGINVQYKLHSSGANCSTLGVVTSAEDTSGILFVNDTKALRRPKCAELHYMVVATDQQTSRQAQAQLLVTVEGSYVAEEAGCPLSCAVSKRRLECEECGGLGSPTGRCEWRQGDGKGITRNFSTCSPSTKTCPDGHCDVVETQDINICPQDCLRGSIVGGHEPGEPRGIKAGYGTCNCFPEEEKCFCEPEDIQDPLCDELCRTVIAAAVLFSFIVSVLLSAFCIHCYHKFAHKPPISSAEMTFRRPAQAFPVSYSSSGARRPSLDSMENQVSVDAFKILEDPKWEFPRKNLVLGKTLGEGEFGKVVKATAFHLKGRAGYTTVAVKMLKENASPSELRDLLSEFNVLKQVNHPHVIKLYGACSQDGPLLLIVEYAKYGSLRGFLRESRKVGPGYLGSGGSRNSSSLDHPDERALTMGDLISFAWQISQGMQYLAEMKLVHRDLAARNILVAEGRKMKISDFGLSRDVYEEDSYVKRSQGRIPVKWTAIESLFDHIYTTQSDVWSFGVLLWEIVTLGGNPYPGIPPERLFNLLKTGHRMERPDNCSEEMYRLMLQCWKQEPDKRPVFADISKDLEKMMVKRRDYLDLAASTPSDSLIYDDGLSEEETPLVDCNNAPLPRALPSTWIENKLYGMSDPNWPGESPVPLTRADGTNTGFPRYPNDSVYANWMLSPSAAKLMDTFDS
T8 sequence (P41240 whole entry): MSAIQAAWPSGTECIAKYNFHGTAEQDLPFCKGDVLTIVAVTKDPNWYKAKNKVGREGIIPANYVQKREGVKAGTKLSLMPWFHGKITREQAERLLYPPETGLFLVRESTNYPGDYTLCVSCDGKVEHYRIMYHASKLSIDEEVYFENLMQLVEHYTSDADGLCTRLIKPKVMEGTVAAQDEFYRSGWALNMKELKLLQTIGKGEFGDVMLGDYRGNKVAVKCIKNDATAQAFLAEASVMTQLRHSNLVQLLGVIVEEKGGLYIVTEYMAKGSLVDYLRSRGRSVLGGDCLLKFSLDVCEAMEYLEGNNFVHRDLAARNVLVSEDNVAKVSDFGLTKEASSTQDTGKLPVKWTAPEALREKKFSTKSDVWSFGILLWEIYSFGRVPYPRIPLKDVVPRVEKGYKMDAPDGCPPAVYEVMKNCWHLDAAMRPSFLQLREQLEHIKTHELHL
T9 sequence (Q6PHR2 whole entry): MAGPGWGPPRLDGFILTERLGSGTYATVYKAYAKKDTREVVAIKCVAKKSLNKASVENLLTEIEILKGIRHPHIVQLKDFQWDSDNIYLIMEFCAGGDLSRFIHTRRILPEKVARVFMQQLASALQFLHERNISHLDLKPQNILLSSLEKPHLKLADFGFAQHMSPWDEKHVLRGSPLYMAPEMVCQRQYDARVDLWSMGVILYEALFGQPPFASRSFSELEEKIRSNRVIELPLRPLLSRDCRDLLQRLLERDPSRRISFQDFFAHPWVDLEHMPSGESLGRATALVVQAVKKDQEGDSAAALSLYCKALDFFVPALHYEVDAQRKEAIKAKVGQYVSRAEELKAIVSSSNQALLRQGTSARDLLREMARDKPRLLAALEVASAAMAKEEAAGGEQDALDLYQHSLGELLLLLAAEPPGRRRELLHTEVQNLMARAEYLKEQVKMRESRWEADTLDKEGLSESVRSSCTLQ
T10 sequence (P42338 whole entry): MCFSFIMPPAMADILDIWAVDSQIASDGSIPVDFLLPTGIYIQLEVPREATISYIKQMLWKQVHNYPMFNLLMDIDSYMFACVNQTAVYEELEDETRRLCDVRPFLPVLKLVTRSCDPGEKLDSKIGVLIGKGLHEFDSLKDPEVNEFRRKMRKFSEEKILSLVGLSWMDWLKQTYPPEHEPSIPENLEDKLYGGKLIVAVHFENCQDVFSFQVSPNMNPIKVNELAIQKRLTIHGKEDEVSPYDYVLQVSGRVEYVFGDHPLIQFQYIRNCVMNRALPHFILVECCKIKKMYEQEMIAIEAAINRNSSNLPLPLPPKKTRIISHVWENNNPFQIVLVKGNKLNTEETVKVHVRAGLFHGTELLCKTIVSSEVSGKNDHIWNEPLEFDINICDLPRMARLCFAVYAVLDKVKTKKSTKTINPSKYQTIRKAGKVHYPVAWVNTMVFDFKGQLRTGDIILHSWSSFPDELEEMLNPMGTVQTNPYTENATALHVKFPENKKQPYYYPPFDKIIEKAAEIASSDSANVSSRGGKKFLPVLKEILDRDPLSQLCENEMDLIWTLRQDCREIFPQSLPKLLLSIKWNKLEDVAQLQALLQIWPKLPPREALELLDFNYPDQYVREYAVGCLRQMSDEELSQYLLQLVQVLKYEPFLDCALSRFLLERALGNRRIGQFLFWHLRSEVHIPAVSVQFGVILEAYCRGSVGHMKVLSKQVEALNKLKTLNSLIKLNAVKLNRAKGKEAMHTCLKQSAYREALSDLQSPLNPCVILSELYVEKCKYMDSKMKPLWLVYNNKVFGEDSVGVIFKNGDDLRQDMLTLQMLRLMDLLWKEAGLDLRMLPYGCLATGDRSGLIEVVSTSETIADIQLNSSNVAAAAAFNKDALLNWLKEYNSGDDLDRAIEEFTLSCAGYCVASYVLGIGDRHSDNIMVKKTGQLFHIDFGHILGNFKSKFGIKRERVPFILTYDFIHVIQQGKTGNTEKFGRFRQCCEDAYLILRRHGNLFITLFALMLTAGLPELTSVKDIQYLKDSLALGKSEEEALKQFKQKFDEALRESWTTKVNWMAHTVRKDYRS
T20 sequence (Q16513 whole entry): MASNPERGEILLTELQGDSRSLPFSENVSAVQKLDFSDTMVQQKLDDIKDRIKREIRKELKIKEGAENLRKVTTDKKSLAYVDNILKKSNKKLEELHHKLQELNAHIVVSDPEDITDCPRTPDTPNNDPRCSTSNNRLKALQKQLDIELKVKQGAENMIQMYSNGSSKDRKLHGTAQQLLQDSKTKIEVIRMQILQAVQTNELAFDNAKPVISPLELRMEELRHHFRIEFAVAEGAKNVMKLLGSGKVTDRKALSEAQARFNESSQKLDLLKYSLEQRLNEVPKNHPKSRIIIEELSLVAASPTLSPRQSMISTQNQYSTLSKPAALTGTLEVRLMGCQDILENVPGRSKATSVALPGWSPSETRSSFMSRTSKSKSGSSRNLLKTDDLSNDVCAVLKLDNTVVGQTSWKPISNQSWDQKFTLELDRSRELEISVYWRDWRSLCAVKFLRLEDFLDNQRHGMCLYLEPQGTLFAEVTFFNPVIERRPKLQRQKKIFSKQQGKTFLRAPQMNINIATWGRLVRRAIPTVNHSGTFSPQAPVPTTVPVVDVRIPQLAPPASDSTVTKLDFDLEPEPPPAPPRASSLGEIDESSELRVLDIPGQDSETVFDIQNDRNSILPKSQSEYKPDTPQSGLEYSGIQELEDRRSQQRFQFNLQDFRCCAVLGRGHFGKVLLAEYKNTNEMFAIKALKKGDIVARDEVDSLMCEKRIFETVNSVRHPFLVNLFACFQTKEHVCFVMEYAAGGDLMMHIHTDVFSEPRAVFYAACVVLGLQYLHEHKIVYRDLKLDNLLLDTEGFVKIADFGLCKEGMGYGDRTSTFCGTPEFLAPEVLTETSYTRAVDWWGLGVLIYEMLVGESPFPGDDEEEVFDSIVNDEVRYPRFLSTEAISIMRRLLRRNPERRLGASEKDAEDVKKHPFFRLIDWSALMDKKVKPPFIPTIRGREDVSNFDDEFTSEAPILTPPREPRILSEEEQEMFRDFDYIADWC

For C#Cc1cccc(Nc2ncnc3cc(OC)c(OCCCN4CCOCC4)cc23)c1 [NRC-2694, N-(3-ethylnylphenyl)-7-methoxy-6-[3-(4-morpholinyl)propoxy]-4-quinazolinamine], the “% Ctrl @ 10000 nM” value [1] was 97 % Ctrl, the “% Ctrl @ 10000 nM” value [2] was 66 % Ctrl and the “% Ctrl @ 10000 nM” value [3] was 36 % Ctrl. The “% Ctrl @ 10000 nM” value [4] was 100 % Ctrl, the “% Ctrl @ 10000 nM” value [5] was 23 % Ctrl and the “% Ctrl @ 10000 nM” value [6] was 55 % Ctrl. For the same molecule, the “% Ctrl @ 10000 nM” value [7] was 92 % Ctrl, the “% Ctrl @ 10000 nM” value [8] was 53 % Ctrl and the “% Ctrl @ 10000 nM” value [9] was 62 % Ctrl. For the same molecule, the “% Ctrl @ 10000 nM” value [10] was 100 % Ctrl, the “% Ctrl @ 10000 nM” value [11] was 74 % Ctrl and the “% Ctrl @ 10000 nM” value [12] was 37 % Ctrl. The “% Ctrl @ 10000 nM” value [13] was 73 % Ctrl, the “% Ctrl @ 10000 nM” value [14] was 26 % Ctrl and the “% Ctrl @ 10000 nM” value [15] was 0 % Ctrl. For the same molecule, the “% Ctrl @ 10000 nM” value [16] was 33 % Ctrl, the “% Ctrl @ 10000 nM” value [17] was 100 % Ctrl and the “% Ctrl @ 10000 nM” value [18] was 63 % Ctrl. The “% Ctrl @ 10000 nM” value [19] was 41 % Ctrl, the “% Ctrl @ 10000 nM” value [20] was 31 % Ctrl and the “% Ctrl @ 10000 nM” value [21] was 0 % Ctrl. The “% Ctrl @ 10000 nM” value [22] was 64 % Ctrl and the “% Ctrl @ 10000 nM” value [23] was 37 % Ctrl.
